# In US20240279202A1 (NURIX THERAPEUTICS, INC., priority 2021, published 2024):
# Biological target: T1, ITK (Homo sapiens, UniProt Q08881)
# T1 sequence (Q08881 1-620): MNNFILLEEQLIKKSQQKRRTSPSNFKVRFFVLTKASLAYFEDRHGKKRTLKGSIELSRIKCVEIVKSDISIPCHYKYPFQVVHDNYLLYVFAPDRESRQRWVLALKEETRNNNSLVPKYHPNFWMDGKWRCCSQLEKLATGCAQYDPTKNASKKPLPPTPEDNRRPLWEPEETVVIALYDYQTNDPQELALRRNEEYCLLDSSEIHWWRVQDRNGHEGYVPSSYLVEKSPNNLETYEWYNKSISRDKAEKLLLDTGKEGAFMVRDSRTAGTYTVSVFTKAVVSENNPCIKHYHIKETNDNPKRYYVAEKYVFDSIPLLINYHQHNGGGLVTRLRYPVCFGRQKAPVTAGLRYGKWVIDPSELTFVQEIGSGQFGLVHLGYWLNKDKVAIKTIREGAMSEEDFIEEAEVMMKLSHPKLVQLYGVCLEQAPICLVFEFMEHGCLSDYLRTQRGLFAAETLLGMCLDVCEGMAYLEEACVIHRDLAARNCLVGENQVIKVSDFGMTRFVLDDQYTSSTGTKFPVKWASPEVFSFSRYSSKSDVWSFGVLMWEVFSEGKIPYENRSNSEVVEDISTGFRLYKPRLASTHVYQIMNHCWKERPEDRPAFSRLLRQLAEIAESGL
# Assay: ITK degradation HiBiT assay
# Format: cell-based
# Set-up: expressed in transfected cells; host or cells: Molt4 (ATCC CRL-1552), monoclonal clone 1C10, engineered to carry the HiBiT tag
# Conditions: 4 hrs; for DC50: C-terminal HiBiT-tagged Molt4 cells; for Dmax: MOLT-4, C-terminal HiBiT-tagged Molt4 cells
# Summary of the method: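 C-terminal HiBiT-tagged Molt4 cells (clone 1C10) treated 4 h at 32° C with an 11-point, 5-fold compound dilution series (0.5% DMSO). HiBiT lytic detection with LgBiT then luminescence read; % ITK remaining versus concentration fit by four-parameter variable-slope model to give DC50 and Dmax.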
SMILES,DC50,Dmax
"C[C@@H](C(=O)N(C)c1ccc2cc(-c3n[nH]c4c3CCC(C)(C)C4)[nH]c2c1)N1CCN(C[C@@H]2CCN(c3ccc4c(c3)n(C)c(=O)n4C3CCC(=O)NC3=O)C2)CC1 (stereo partly drawn) [Compound 4, (2S)—N-(2-(6,6-dimethyl-4,5,6,7-tetrahydro-1H-indazol-3-yl)-1H-indol-6-yl)-2-(4-(((3S)-1-(1-(2,6-dioxopiperidin-3-yl)-3-methyl-2-oxo-2,3-dihydro-1H-benzo[d]imidazol-5-yl)pyrrolidin-3-yl)methyl)piperazin-1-yl)-N-methylpropanamide]",2.3 nM,64%
"C[C@@]12Cc3[nH]nc(C(=O)Nc4cnn(CC5CN(C(=O)C6CN(c7ccc(C8CCC(=O)NC8=O)cn7)C6)C5)c4)c3C[C@@H]1C2(F)F (stereo partly drawn) [Compound 49, (4aS,5aR)-N-(1-((1-(1-(5-(2,6-dioxopiperidin-3-yl)pyridin-2-yl)azetidine-3-carbonyl)azetidin-3-yl)methyl)-1H-pyrazol-4-yl)-5,5-difluoro-5a-methyl-1,4,4a,5,5a,6-hexahydrocyclopropa[f]indazole-3-carboxamide]",3.9 nM,–
"CN(C(=O)CCC1CCN(c2ccc(C(=O)NC3CCC(=O)NC3=O)nc2)C1)c1ccc2cc(-c3n[nH]c4c3C[C@@H]3C(F)(F)[C@]3(C)C4)[nH]c2c1 (stereo partly drawn) [Compound 69, 5-(3-(3-((2-((4aS,5aR)-5,5-difluoro-5a-methyl-1,4,4a,5,5a,6-hexahydrocyclopropa[f]indazol-3-yl)-1H-indol-6-yl)(methyl)amino)-3-oxopropyl)pyrrolidin-1-yl)-N-(2,6-dioxopiperidin-3-yl)picolinamide]",–,42%
"Cn1c(=O)n([C@@H]2CCC(=O)NC2=O)c2cccc(N3CCC(CN4CCN(C(=O)c5ccc6cc(-c7n[nH]c8c7CCC(C)(C)C8)[nH]c6c5)CC4)CC3)c21 [Compound 48, (R)-3-(4-(4-((4-(2-(6,6-dimethyl-4,5,6,7-tetrahydro-1H-indazol-3-yl)-1H-indole-6-carbonyl)piperazin-1-yl)methyl)piperidin-1-yl)-3-methyl-2-oxo-2,3-dihydro-1H-benzo[d]imidazol-1-yl)piperidine-2,6-dione]",5.2 nM,86%
"CN(c1ccc2cc(-c3n[nH]c4c3C[C@@H]3C(F)(F)[C@]3(C)C4)[nH]c2c1)C(=O)[C@H]1C[C@]2(CCN(c3ccc4c(c3)C(=O)N([C@H]3CCC(=O)NC3=O)C4=O)C2)C1 (racemic) [Compound 71b, (2s,4s)-N-[2-[(4aS,5aR)-5,5-difluoro-5a-methyl-1H,4H,4aH,6H-cyclopropa[f]indazol-3-yl]-1H-indol-6-yl]-6-[2-[(3RS)-2,6-dioxopiperidin-3-yl]-1,3-dioxoisoindol-5-yl]-N-methyl-6-azaspiro[3.4]octane-2-carboxamide]",2 nM,85%
"C[C@@H](C(=O)N(C)c1ccc2cc(-c3n[nH]c4c3C[C@@H]3C(F)(F)[C@]3(C)C4)[nH]c2c1)N1CCN(CC2CCN(c3ccc(C4CCC(=O)NC4=O)cn3)CC2)CC1 (stereo partly drawn) [Compound 17, (2S)—N-(2-((4aS,5aR)-5,5-difluoro-5a-methyl-1,4,4a,5,5a,6-hexahydrocyclopropa[f]indazol-3-yl)-1H-indol-6-yl)-2-(4-((1-(5-(2,6-dioxopiperidin-3-yl)pyridin-2-yl)piperidin-4-yl)methyl)piperazin-1-yl)-N-methylpropanamide]",< 0.001 nM,–
"Cn1c(=O)n([C@H]2CCC(=O)NC2=O)c2cccc(N3CCC(CN4CCN(C(=O)c5ccc6cc(-c7n[nH]c8c7CCC(C)(C)C8)[nH]c6c5)CC4)CC3)c21 [Compound 46, (S)-3-(4-(4-((4-(2-(6,6-dimethyl-4,5,6,7-tetrahydro-1H-indazol-3-yl)-1H-indole-6-carbonyl)piperazin-1-yl)methyl)piperidin-1-yl)-3-methyl-2-oxo-2,3-dihydro-1H-benzo[d]imidazol-1-yl)piperidine-2,6-dione]",14 nM,79%
"C[C@@H](C(=O)N(C)c1ccc2cc(-c3n[nH]c4c3C[C@@H]3C(F)(F)[C@]3(C)C4)[nH]c2c1)N1CCN(CC2CCN(c3ccc(N4CCC(=O)NC4=O)cn3)CC2)CC1 [Compound 18, (S)—N-(2-((4aS,5aR)-5,5-difluoro-5a-methyl-1,4,4a,5,5a,6-hexahydrocyclopropa[f]indazol-3-yl)-1H-indol-6-yl)-2-(4-((1-(5-(2,4-dioxotetrahydropyrimidin-1(2H)-yl)pyridin-2-yl)piperidin-4-yl)methyl)piperazin-1-yl)-N-methylpropanamide]",0.004 nM,–
"Cn1c(=O)n(C2CCC(=O)NC2=O)c2cccc(N3CCC(CN4CCC5(CC4)CCN(c4ccc6cc(-c7n[nH]c8c7CCC(C)(C)C8)[nH]c6c4)C5=O)CC3)c21 (stereo not drawn) [Compound 13, 3-(4-(4-((2-(2-(6,6-dimethyl-4,5,6,7-tetrahydro-1H-indazol-3-yl)-1H-indol-6-yl)-1-oxo-2,8-diazaspiro[4.5]decan-8-yl)methyl)piperidin-1-yl)-3-methyl-2-oxo-2,3-dihydro-1H-benzo[d]imidazol-1-yl)piperidine-2,6-dione]",2.4 nM,90%
"Cn1c(=O)n(C2CCC(=O)NC2=O)c2cccc(N3CCC(CN4CCC5(CC4)CCN(c4ccc6cc(-c7n[nH]c8c7C[C@@H]7C(F)(F)[C@]7(C)C8)[nH]c6c4)C5=O)CC3)c21 (stereo partly drawn) [Compound 16, 3-(4-(4-((2-(2-((4aS,5aR)-5,5-difluoro-5a-methyl-1,4,4a,5,5a,6-hexahydrocyclopropa[f]indazol-3-yl)-1H-indol-6-yl)-1-oxo-2,8-diazaspiro[4.5]decan-8-yl)methyl)piperidin-1-yl)-3-methyl-2-oxo-2,3-dihydro-1H-benzo[d]imidazol-1-yl)piperidine-2,6-dione]",0.23 nM,90%
"CN(C(=O)CN1CCC2(CC1)CCN(c1ccc3c(c1)C(=O)N(C1CCC(=O)NC1=O)C3=O)C2)c1ccc2cc(-c3n[nH]c4c3C[C@@H]3C(F)(F)[C@]3(C)C4)[nH]c2c1 (stereo partly drawn) [Compound 72, N-(2-((4aS,5aR)-5,5-difluoro-5a-methyl-1,4,4a,5,5a,6-hexahydrocyclopropa[f]indazol-3-yl)-1H-indol-6-yl)-2-(2-(2-(2,6-dioxopiperidin-3-yl)-1,3-dioxoisoindolin-5-yl)-2,8-diazaspiro[4.5]decan-8-yl)-N-methylacetamide]",0.12 nM,86%
"CN(C(=O)CCN1CCN(c2ccc3c(c2)C(=O)N(C2CCC(=O)NC2=O)C3=O)CC1)c1ccc2cc(-c3n[nH]c4c3CCC(C)(C)C4)[nH]c2c1 (stereo not drawn) [Compound 2, N-(2-(6,6-dimethyl-4,5,6,7-tetrahydro-1H-indazol-3-yl)-1H-indol-6-yl)-3-(4-(2-(2,6-dioxopiperidin-3-yl)-1,3-dioxoisoindolin-5-yl)piperazin-1-yl)-N-methylpropanamide]",4.4 nM,90%
"C[C@@]12Cc3[nH]nc(C(=O)Nc4cnn(CC5CN(C(=O)C6CN(c7ccc8c(c7)C(=O)N(C7CCC(=O)NC7=O)C8=O)C6)C5)c4)c3C[C@@H]1C2(F)F (stereo partly drawn) [Compound 43, (4aS,5aR)-N-(1-((1-(1-(2-(2,6-dioxopiperidin-3-yl)-1,3-dioxoisoindolin-5-yl)azetidine-3-carbonyl)azetidin-3-yl)methyl)-1H-pyrazol-4-yl)-5,5-difluoro-5a-methyl-1,4,4a,5,5a,6-hexahydrocyclopropa[f]indazole-3-carboxamide]",2.9 nM,93%
"C[C@@H](C(=O)N(C)c1ccc2cc(-c3n[nH]c4c3CCC(C)(C)C4)[nH]c2c1)N1CCN(C[C@H]2CCN(c3ccc4c(c3)C(=O)N(C3CCC(=O)NC3=O)C4=O)C2)CC1 (stereo partly drawn) [Compound 33, (2S)—N-(2-(6,6-dimethyl-4,5,6,7-tetrahydro-1H-indazol-3-yl)-1H-indol-6-yl)-2-(4-(((3R)-1-(2-(2,6-dioxopiperidin-3-yl)-1,3-dioxoisoindolin-5-yl)pyrrolidin-3-yl)methyl)piperazin-1-yl)-N-methylpropanamide]",3.4 nM,85%
"CC1(C)CCc2c(-c3cc4ccc(N5CCC6(CCN(CC7CCN(c8ccc(C9CCC(=O)NC9=O)cn8)CC7)CC6)C5=O)cc4[nH]3)n[nH]c2C1 (stereo not drawn) [Compound 22, 3-(6-(4-((2-(2-(6,6-dimethyl-4,5,6,7-tetrahydro-1H-indazol-3-yl)-1H-indol-6-yl)-1-oxo-2,8-diazaspiro[4.5]decan-8-yl)methyl)piperidin-1-yl)pyridin-3-yl)piperidine-2,6-dione]",0.01 nM,82%
"CN(C(=O)CC1CCN(CC2CCN(c3ccc(C4CCC(=O)NC4=O)cn3)CC2)CC1)c1ccc2cc(-c3n[nH]c4c3C[C@@H]3C(F)(F)[C@]3(C)C4)[nH]c2c1 (stereo partly drawn) [Compound 73, N-(2-((4aS,5aR)-5,5-difluoro-5a-methyl-1,4,4a,5,5a,6-hexahydrocyclopropa[f]indazol-3-yl)-1H-indol-6-yl)-2-(1-((1-(5-(2,6-dioxopiperidin-3-yl)pyridin-2-yl)piperidin-4-yl)methyl)piperidin-4-yl)-N-methylacetamide]",1.6 nM,–
